Source: US20230043428A1, “COMPOSITIONS AND METHODS FOR USE OF CANNABINOIDS FOR NEUROPROTECTION” (INMED PHARMACEUTICALS INC., priority 2019, published 2023)
Values joined by “and” are separate entries in the source; they are usually repeats but may differ in a detail not shown here. Equal values may be shown once. “Also recorded” adds a separate entry of the source.

How the values were obtained:
[1] = tested on: rat episcleral vein laser photocoagulation model of glaucoma (RGC function); test: pattern electroretinogram (pERG) in the rat episcleral vein laser photocoagulation model of glaucoma; type: in vivo; details: for pERG amplitudes vs baseline (statistical significance): two-way ANOVA, Tukey
Method: The pattern electroretinogram (pERG) amplitude a parameter that measures retinal ganglion cell (RGC) activity was evaluated on the eyes of anesthetized animals. During the pERG recording, the eyes were kept moist with a drop of 2.5% GonioVisc ophthalmic lubricant solution (Hub Pharmaceuticals), which also secured electrical contact between the corneas and ERG electrodes. The ERG electrodes were thin silver/silver-chloride wire rings. One eye was recorded while another eye was mechanically occluded. The occluded eye served as a reference in the ERG recording providing minimal physiological noise, while the ground electrode was placed on the tail. Only the signals from the right eye (OD) were recorded. The pERG stimulus was generated with a gamma-linearized monitor screen yielding vertical sinusoidal pattern of 0.10 cycles per degree of visual angle at viewing distance. The mean luminance of stimulation was 45 lux and contrast between dark and white was 99%. […] Two recordings were performed for each eye. For the pERG analysis, the pERG waveforms were superimposed, checked for consistency and averaged as final pERG response. Baseline pERG responses were recorded at day 0 four days prior to the lasering, and on days 7, 14 and day 21 post-lasering. Initially pERG baseline amplitudes were recorded on the eyes of all animals at baseline. The animals were then randomized into control and treatments groups based on their pERG response.
The following treatment arms were used in the study: • Group 1: Vehicle (0.5% DMSO-PBS) (IVT, day 0, day 7 and day 15) n=11 • Group 2: CBN low dose, 5 μM in 0.05% DMSO-PBS (IVT, day 0, day 7 and day 15) n=13 • Group 3: CBN high dose 50 μM in 0.5% DMSO-PBS (IVT, day 0, day 7 and day 15) n=11 • Group 4: Brimonidine (topical, twice daily at 5 μl per eye, day −3 to day 21) n=14

[2] = tested on: differentiated 661W cells; test: MTT assay, cannabinoid cytotoxicity on differentiated 661W cells under atmospheric pressure; type: cell-based, mouse; details: 72 hours
Method: (§1) Cell Culture and Differentiation: The mouse 661W (RGC-5) cell line was maintained in DMEM cell culture medium supplemented with 10% FBS and 1% Antibiotic-Antimycotic penicillin/streptomycin (growth medium) at 37° C. in a humidified atmosphere of 5% CO2. To induce neuronal differentiation in 661W cells, culture media was replaced by a growth medium containing 321 nM Staurosporine (STSR), and cells were incubated for 24 hrs at 37° C. in a humidified atmosphere of 5% CO2.
(§2) Compounds and Dosing Formulations: Selected cannabinoids: CBN, CBD, CBGA, CBDA, CBND and Δ^9-THC were procured from Cayman and Toronto Research Chemicals. Ethanol was used as the solvent to prepare 1 and 10 mM stock solutions. Treatment concentrations for CBN were prepared at 0.015, 0.05, 0.15, 0.5, 1.5, 5, 10 and 15 μM. Treatment concentrations at 0.5, 1.5 and 5 μM for other cannabinoids were prepared directly in the control medium (DMEM+5% FBS+1% Antibiotic-Antimycotic) by using appropriate stock solution.
(§3) Evaluation of Cytotoxicity and Neuroprotection: Evaluation of cannabinoid cytotoxicity on differentiated 661W cells under atmospheric pressure was carried out using MTT (3-(4,5-dimethylthiazol-2-yl)-2,5-diphenyltetrazolium bromide) assay. The cells were seeded onto 96-well plates (4,000 cells/well) in DMEM complete medium and allowed to reach ˜70% confluence for 24 hrs. After 24 hours, cell culture medium was replaced by growth medium containing 321 nM Staurosporine (STSR) and incubated for 1 day to induce differentiation into a neuronal phenotype.
(§4) MTT Assay: For the MTT assay, differentiated 661W cells were treated with cannabinoids at various concentrations and processed to determine cytotoxicity. Briefly, 5 mg/mL of methylthiazolyldiphenyl-tetrazolium bromide (Sigma-Aldrich) stock solution was prepared in PBS. Following treatment of cannabinoids for 72 hours, 661W cells were incubated with 20 μL of MTT stock solution in 200 μL DMEM for 2 hours at 37° C. Following subsequent washes with PBS, 200 μL of isopropanol was added to each well, and the resulting change in color from dissolving formazan salt was immediately quantified using spectrophotometer (BMG Labtech) at a wavelength of 570 nm. The data was normalized to Vehicle Control (VC) containing 0.15% ethanol and presented as % Cell Death. The VC (%) at atmospheric pressure was considered as 0% cell death. The results are illustrated in FIG. 1.

[3] = tested on: differentiated 661W cells; test: MTT assay, differentiated 661W cells in pressurized chamber at elevated hydrostatic pressure (approximately 20 to 40 mm Hg); type: cell-based, mouse; details: for neuroprotection (Cell Death % vs Normal Pressure Vehicle Control): elevated hydrostatic pressure approximately 20 to 40 mm Hg, 72 hours
Method: as §1, §2, §3, §4
Except where indicated all procedures were performed as described in Example 1. Differentiated 661W cells treated with cannabinoids at the respective concentrations were placed in a pressurized chamber where an elevated hydrostatic pressure of […] was maintained for 72 hrs. At the end of incubation, 661W cells were processed for MTT assay to determine cytotoxicity. The results are illustrated in FIGS. 2-5.

[4] = tested on: differentiated 661W cells; test: MTT assay, CBNA on differentiated 661W cells at elevated hydrostatic pressure (~10-25 mmHg); type: cell-based, mouse; details: elevated hydrostatic pressure approximately 10 to 25 mmHg; 0.015 to 15 μM; 72 hours
Method: as §4
In a separate study cannabinol-derivative CBNA at 0.015, 0.05, 0.15, 0.5, 1.5, 5, 10, and 15 μM concentrations was placed on differentiated 661W cells in a pressurized chamber where an elevated hydrostatic pressure of ˜10-25 mmHg was maintained for 72 hrs. At the end of incubation, 661W cells were processed for MTT assay to determine cytotoxicity. The results are illustrated in FIG. 6.

[5] = Brimonidine topical, twice daily at 5 μl per eye
[6] = Brimonidine topical, twice daily
[7] = CBN high dose, 50 μM, IVT day 0, 7 and 15
[8] = CBN low dose, 5 μM, IVT day 0, 7 and 15

Compound: Brc1c(NC2=NCCN2)ccc2nccnc12 [Alphagan, Brimonidine]
- pERG amplitudes vs baseline (statistical significance) ([1]; Brimonidine (ALPHAGAN) topical twice daily, follow-up days 14 and 21): did not differ significantly from the baseline
- pERG amplitude (mean ± SEM), BASELINE ([1]; Brimonidine topical, twice daily at 5 μl per eye, day −3 to day 21, baseline): 3.6 ± 0.4 μV
- pERG amplitude (mean ± SEM), DAY 7 [1, 5]: 3.9 ± 0.6 μV
- pERG amplitude (mean ± SEM), DAY 14 [1, 5]: 2.8 ± 0.4 μV
- pERG amplitude (mean ± SEM), DAY 21 [1, 5]: 2.4 ± 0.3 μV
- pERG amplitude reduction compared to baseline value, Day 7 [1, 6]: 9.6%
- pERG amplitude reduction compared to baseline value, Day 14 [1, 6]: −22.8%
- pERG amplitude reduction compared to baseline value, Day 21 [1, 6]: −31.6%

Compound: CCCCCc1cc(O)c2c(c1)OC(C)(CCC=C(C)C)C=C2 (stereo not drawn) [CBC, cannabichromene]
- toxicity when in contact with neurons ([2]; concentration of about 1.5 μM): high toxicity
- toxicity when in contact with neurons ([2]; concentration of about 5 μM): high toxicity

Compound: C=C(C)[C@@H]1CCC(C)=C[C@H]1c1c(O)cc(CCCCC)c(C(=O)O)c1O [CBDA, cannabidiolic acid]
- toxicity when in contact with neurons ([2]; concentration of about 5 μM): high toxicity
- neuroprotection (Cell Death % vs Normal Pressure Vehicle Control) ([3]; 0.5 μM, 1.5 μM and 5 μM): absence of significant neuroprotection

Compound: C=C(C)[C@@H]1CCC(C)=C[C@H]1c1c(O)cc(CCCCC)cc1O [CBD]
- toxicity when in contact with neurons ([2]; concentration of about 0.5 μM): high toxicity
- toxicity when in contact with neurons ([2]; concentration of about 1.5 μM): high toxicity
- toxicity when in contact with neurons ([2]; concentration of about 5 μM): high toxicity
- neuroprotection (Cell Death % vs Normal Pressure Vehicle Control) ([3]; 0.5 μM, 1.5 μM and 5 μM): absence of significant neuroprotection

Compound: CCCCCc1cc(O)c(C/C=C(\C)CCC=C(C)C)c(O)c1 [CBG, cannabigerol]
- toxicity when in contact with neurons ([2]; concentration of about 0.5 μM): high toxicity
- toxicity when in contact with neurons ([2]; concentration of about 1.5 μM): high toxicity
- toxicity when in contact with neurons ([2]; concentration of about 5 μM): high toxicity

Compound: CCCCCc1cc(O)c(C/C=C(\C)CCC=C(C)C)c(O)c1C(=O)O [CBGA]
- toxicity when in contact with neurons ([2]; concentration of about 0.5 μM): high toxicity
- toxicity when in contact with neurons ([2]; concentration of about 1.5 μM): high toxicity
- toxicity when in contact with neurons ([2]; concentration of about 5 μM): high toxicity
- neuroprotection (Cell Death % vs Normal Pressure Vehicle Control) ([3]; 0.5 μM, 1.5 μM and 5 μM): absence of significant neuroprotection

Compound: CCCCCc1cc(O)c2c(c1)OC(C)(C)c1ccc(C)cc1-2 [CBN, 6,6,9-trimethyl-3-pentylbenzo[c]chromen-1-ol]
- neuroprotection (Cell Death % vs Normal Pressure Vehicle Control) ([3]; CBN 0.015 to 15 μM, One-Way ANOVA vs VC): statistically significant neuroprotection; also recorded: significant neuroprotective effect
- neuroprotective effect compared with CBD and Δ^9-THC ([3]; elevated pressure conditions in the pressurized chamber, same conditions): surprisingly superior
- pERG amplitudes vs baseline (statistical significance) ([1]; CBN high dose, 50 μM IVT, days 14 and 21): statistically significant difference in disease induction; also recorded: Statistically significant impairment of RGC function
- pERG amplitude (mean ± SEM), BASELINE ([1]; CBN high dose, 50 μM, IVT day 0, 7 and 15, baseline (before lasering)): 3.83 μV and 3.8 ± 0.4 μV
- pERG amplitude (mean ± SEM), DAY 7 [1, 7]: 3.6 ± 0.6 μV
- pERG amplitude (mean ± SEM), DAY 14 [1, 7]: 1.87 μV and 1.9 ± 0.3 μV
- pERG amplitude (mean ± SEM), DAY 21 [1, 7]: 2.19 μV and 2.2 ± 0.4 μV
- pERG amplitude reduction compared to baseline value, Day 7 ([1]; CBN high dose, 50 μM, IVT): −6.4%
- pERG amplitude reduction compared to baseline value, Day 14 ([1]; CBN high dose, 50 μM, IVT, **p<0.01 vs baseline): −51.2** %
- pERG amplitude reduction compared to baseline value, Day 21 ([1]; CBN high dose, 50 μM, IVT, *p<0.05 vs baseline): −42.9* %
- neuroprotective effect on RGCs ([1]; CBN low dose of 5 μM final concentration inside the eye): confers neuroprotective effect on RGCs similar to ALPHAGAN
- pERG amplitudes vs baseline (statistical significance) ([1]; CBN low dose, 5 μM final concentration inside the eye, follow-up days 14 and 21): did not differ significantly from the baseline
- pERG amplitude (mean ± SEM), BASELINE ([1]; CBN low dose, 5 μM, IVT day 0, 7 and 15, baseline (before lasering)): 3.3 ± 0.3 μV
- pERG amplitude (mean ± SEM), DAY 7 [1, 8]: 3.2 ± 0.5 μV
- pERG amplitude (mean ± SEM), DAY 14 [1, 8]: 2.3 ± 0.2 μV
- pERG amplitude (mean ± SEM), DAY 21 [1, 8]: 2.2 ± 0.3 μV
- pERG amplitude reduction compared to baseline value, Day 7 ([1]; CBN low dose, 5 μM, IVT): −3.7%
- pERG amplitude reduction compared to baseline value, Day 14 ([1]; CBN low dose, 5 μM, IVT): −31.2%
- pERG amplitude reduction compared to baseline value, Day 21 ([1]; CBN low dose, 5 μM, IVT): −31.6%

Compound: CCCCCc1cc2c(c(O)c1C(=O)O)-c1cc(C)ccc1C(C)(C)O2 [CBNA, cannabinolic acid]
- neuroprotection (Cell Death % vs Vehicle Control) [4]: statistically significant neuroprotection

Compound: C=C(C)c1ccc(C)cc1-c1c(O)cc(CCCCC)cc1O [CBND]
- toxicity when in contact with neurons ([2]; concentration of about 1.5 μM): high toxicity
- toxicity when in contact with neurons ([2]; concentration of about 5 μM): high toxicity
- neuroprotection (Cell Death % vs Normal Pressure Vehicle Control) ([3]; 0.5 μM, 1.5 μM and 5 μM): absence of significant neuroprotection

Compound: CCCCCc1cc(O)c2c(c1)OC(C)(C)[C@@H]1CCC(C)=C[C@@H]21 [Δ^9-THC, Δ^9-tetrahydrocannabinol]
- toxicity when in contact with neurons ([2]; concentration of about 5 μM): high toxicity
- neuroprotection (Cell Death % vs Normal Pressure Vehicle Control) ([3]; 0.5 μM, 1.5 μM and 5 μM): absence of significant neuroprotection
